According to PMC7200784, “In-vitro safety and off-target profile of the anti-parasitic arylmethylaminosteroid 1o” (Scientific Reports, 2020):

Tested on: Caco-2 cell barrier
Experiment: Caco-2 cell barrier integrity (TEER and capacitance, cellZscope2)
Assay type: cell-based
Conditions: 20 h after addition, value before addition = 100%; 10 mM EGTA
Experimental: Twenty thousand CaCo-2 cells were seeded on 24-well ThinCerts (pre-coated with FCS for 30 min). In the lower compartment (basolateral), 1 ml culture medium per well was added. As a control, half of the ThinCerts were not seeded with cells. The ThinCerts were transferred to the cellZscope2 (nanoAnalytics). Two hundred µl of medium was added to the ThinCerts to reach a final volume of 300 µl in the upper compartment (apical). The TEER and capacitance were measured every hour. After 5 days, the TEER reached a constant value of 700–900 Ohm*cm² and the medium was replaced with EMEM with 2% FCS, 2 mM L-glutamine, 1x non-essential amino acids, and 110 nM hydrocortisone. The TEER and capacitance were measured every hour for 1 day. Sc1o (0 µM, 1 µM, 10 µM, 25 µM, 50 µM) diluted in EMEM with 2% FCS, 2 mM L-glutamine, 1x non-essential amino acids, and 110 nM hydrocortisone were added to the apical compartment. As a control, 10 mM of EGTA was used. The cellZscope2 module was transferred into the incubator for 24 h, and every 30 min the TEER and capacitance were detected. TEER and capacitance values at the time point of adding the compound solution were used as references to calculate the alteration (t0h-value). […] At time point 0h and after 24 h the medium of the basolateral and apical compartment was collected and stored at −20 °C and analysed by LC-MS/MS.

For O=C(O)CN(CCOCCOCCN(CC(=O)O)CC(=O)O)CC(=O)O [EGTA, Ethylene glycol-bis(β-aminoethyl ether)-N,N,N′,N′-tetraacetic acid], the “Relative TEER” value was 0.12 ± 0.03% and the Relative capacitance was 481 ± 168%.
